Test results from patent publication US8703701B2 (Indiana University Research and Technology Corporation, priority 2009, dated 2014).
Values belong to the compound of their own block, whether it stands above or below them. Starred links: 1 amine or outer side, 2 acyl side, 3 side chain; linkers in the order of their positions; H or OH if unused. Non-standard residues stand in square brackets, D forms with d. Residues, ends and D or L forms follow the SMILES beside them. Groups on a side chain read outwards from the residue. *: point of attachment. γGlu = O=C(O)[C@H](CCC(=O)[*:2])N[*:1]; Palmitoyl = CCCCCCCCCCCCCCCC(=O)*; Aib = CC(C)(N)C(=O)O

Key:
[1] = biological target: T1, GLP-1 receptor (Homo sapiens, UniProt P43220); test: cAMP induction, firefly luciferase reporter assay, GLP-1 receptor; type: cell-based; conditions: for Activity at GLP-1 Receptor % Relative Activity: compared to native GLP-1
T1 construct: expressed in transfected cells; host or cells: HEK293
T1 sequence (P43220 24-463): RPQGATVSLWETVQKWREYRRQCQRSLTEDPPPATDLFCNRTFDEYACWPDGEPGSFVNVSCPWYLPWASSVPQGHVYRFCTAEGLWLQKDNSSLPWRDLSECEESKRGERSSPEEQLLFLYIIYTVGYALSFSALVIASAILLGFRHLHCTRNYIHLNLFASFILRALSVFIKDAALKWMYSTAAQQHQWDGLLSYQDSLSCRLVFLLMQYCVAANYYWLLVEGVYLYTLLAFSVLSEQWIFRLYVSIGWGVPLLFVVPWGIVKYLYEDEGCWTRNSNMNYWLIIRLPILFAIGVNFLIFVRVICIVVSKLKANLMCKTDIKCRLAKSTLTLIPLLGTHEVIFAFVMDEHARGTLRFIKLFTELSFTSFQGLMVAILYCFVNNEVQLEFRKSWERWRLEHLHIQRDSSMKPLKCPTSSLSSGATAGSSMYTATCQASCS
Protocol: (§1) The ability of each peptide to induce cAMP was measured in a firefly luciferase-based reporter assay.
(§2) At the end of the incubation, 100 μL of LucLite luminescence substrate reagent (Perkin Elmer, Wellesley, Mass.) were added to each well. The plate was shaken briefly, incubated 10 min in the dark and light output was measured on MicroBeta-1450 liquid scintillation counter (Perkin-Elmer, Wellesley, Mass.).

[2] = biological target: T2, glucagon receptor (Homo sapiens, UniProt P47871); test: cAMP induction, firefly luciferase reporter assay, glucagon receptor; type: cell-based; conditions: for Activity at Glucagon Receptor % Relative Activity: compared to native glucagon
T2 construct: expressed in transfected cells; host or cells: HEK293
T2 sequence (P47871 26-477): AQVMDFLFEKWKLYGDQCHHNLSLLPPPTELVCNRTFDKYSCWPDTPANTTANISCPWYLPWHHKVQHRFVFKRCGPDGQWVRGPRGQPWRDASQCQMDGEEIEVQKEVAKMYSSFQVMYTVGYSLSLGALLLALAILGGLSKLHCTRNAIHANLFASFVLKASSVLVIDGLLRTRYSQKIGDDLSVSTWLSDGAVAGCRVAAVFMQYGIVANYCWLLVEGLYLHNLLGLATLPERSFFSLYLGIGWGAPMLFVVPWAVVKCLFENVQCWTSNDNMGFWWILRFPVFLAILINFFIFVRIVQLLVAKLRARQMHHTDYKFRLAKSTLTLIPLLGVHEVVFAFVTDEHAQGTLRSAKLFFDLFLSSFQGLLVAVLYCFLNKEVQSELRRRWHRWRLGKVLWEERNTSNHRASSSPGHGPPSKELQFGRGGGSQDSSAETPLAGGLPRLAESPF
Protocol: as §1, §2

[3] = Activity at GLP-1 Receptor EC50 (nM), Table 2A
[4] = EC50 (nM) at GLP-1 Receptor, Table 7B

Compound: CSCC[C@H](NC(=O)[C@H](CC(C)C)NC(=O)[C@H](Cc1c[nH]c2ccccc12)NC(=O)[C@H](CCC(N)=O)NC(=O)[C@@H](NC(=O)[C@H](Cc1ccccc1)NC(=O)[C@H](CCC(=O)O)NC(=O)[C@H](CCC(N)=O)NC(=O)[C@H](C)NC(=O)[C@H](CCCNC(=N)N)NC(=O)[C@H](CCCCN)NC(=O)[C@H](CO)NC(=O)[C@H](CC(=O)O)NC(=O)[C@H](CC(C)C)NC(=O)[C@H](Cc1ccc(O)cc1)NC(=O)[C@H](CCCCN)NC(=O)[C@H](CO)NC(=O)[C@H](Cc1ccc(O)cc1)NC(=O)[C@H](CC(=O)O)NC(=O)[C@H](CO)NC(=O)[C@@H](NC(=O)[C@H](Cc1ccccc1)NC(=O)[C@@H](NC(=O)CNC(=O)[C@H](CCC(N)=O)NC(=O)[C@H](CO)NC(=O)[C@@H](N)Cc1c[nH]cn1)[C@@H](C)O)[C@@H](C)O)C(C)C)C(=O)N[C@@H](CC(N)=O)C(=O)N[C@H](C(N)=O)[C@@H](C)O [Peptide 1]
EC50 ([1]; GLP-1 Receptor EC50 (nM), Table 1, HEK293 cells co-transfected with receptor and CRE-luciferase): 0.13 nM

Compound: CSCC[C@H](NC(=O)[C@H](CC(C)C)NC(=O)[C@H](Cc1c[nH]c2ccccc12)NC(=O)[C@H](CCC(N)=O)NC(=O)[C@@H](NC(=O)[C@H](Cc1ccccc1)NC(=O)[C@H](CCC(=O)O)NC(=O)[C@H](CCCCN)NC(=O)[C@H](C)NC(=O)[C@H](CCCNC(=N)N)NC(=O)[C@H](CCCCN)NC(=O)[C@H](CCC(=O)O)NC(=O)[C@H](CC(=O)O)NC(=O)[C@H](CC(C)C)NC(=O)[C@H](Cc1ccc(O)cc1)NC(=O)[C@H](CCCCN)NC(=O)[C@H](CO)NC(=O)[C@H](Cc1ccc(O)cc1)NC(=O)[C@H](CC(=O)O)NC(=O)[C@H](CO)NC(=O)[C@@H](NC(=O)[C@H](Cc1ccccc1)NC(=O)[C@@H](NC(=O)CNC(=O)[C@H](CCC(N)=O)NC(=O)[C@@H](CO)NC(=O)[C@@H](N)Cc1c[nH]cn1)[C@@H](C)O)[C@@H](C)O)C(C)C)C(=O)N[C@@H](CC(N)=O)C(=O)N[C@H](C(N)=O)[C@@H](C)O [compound 20]
EC50 [1, 3]: 0.284 nM | EC50 ([2]; Activity at Glucagon Receptor EC50 (nM), Table 2A): 0.054 nM

Compound: CSCC[C@H](NC(=O)[C@H](CC(C)C)NC(=O)[C@H](Cc1c[nH]c2ccccc12)NC(=O)[C@H](CCC(N)=O)NC(=O)[C@@H](NC(=O)[C@H](Cc1ccccc1)NC(=O)[C@H](CCC(=O)O)NC(=O)[C@H](CCCCN)NC(=O)[C@H](C)NC(=O)[C@H](CCCNC(=N)N)NC(=O)[C@H](CCCCN)NC(=O)C(C)(C)NC(=O)[C@H](CC(=O)O)NC(=O)[C@H](CC(C)C)NC(=O)[C@H](Cc1ccc(O)cc1)NC(=O)[C@H](CCCCN)NC(=O)[C@H](CO)NC(=O)[C@H](Cc1ccc(O)cc1)NC(=O)[C@H](CC(=O)O)NC(=O)[C@H](CO)NC(=O)[C@@H](NC(=O)[C@H](Cc1ccccc1)NC(=O)[C@@H](NC(=O)CNC(=O)[C@H](CCC(N)=O)NC(=O)[C@@H](CO)NC(=O)[C@@H](N)Cc1c[nH]cn1)[C@@H](C)O)[C@@H](C)O)C(C)C)C(=O)N[C@@H](CC(N)=O)C(=O)N[C@H](C(N)=O)[C@@H](C)O [compound 21]
EC50 [1, 3]: 0.048 nM

Compound: CCCCCCCCCCCCCCCC(=O)N[C@@H](CCC(=O)NCCCC[C@H](NC(=O)[C@H](CC(=O)O)NC(=O)[C@H](CO)NC(=O)[C@@H](NC(=O)[C@H](Cc1ccccc1)NC(=O)[C@@H](NC(=O)CNC(=O)[C@H](CCC(N)=O)NC(=O)C(C)(C)NC(=O)[C@@H](N)Cc1c[nH]cn1)[C@@H](C)O)[C@@H](C)O)C(=O)N[C@@H](CO)C(=O)N[C@@H](CCCCN)C(=O)N[C@@H](Cc1ccc(O)cc1)C(=O)N[C@@H](CC(C)C)C(=O)N[C@@H](CC(=O)O)C(=O)NC(C)(C)C(=O)N[C@@H](CCCNC(=N)N)C(=O)N[C@@H](C)C(=O)N[C@@H](C)C(=O)N[C@@H](CCC(N)=O)C(=O)N[C@@H](CC(=O)O)C(=O)N[C@@H](Cc1ccccc1)C(=O)N[C@H](C(=O)N[C@@H](CCC(N)=O)C(=O)N[C@@H](Cc1c[nH]c2ccccc12)C(=O)N[C@@H](CC(C)C)C(=O)N[C@@H](CCSC)C(=O)N[C@@H](CC(=O)O)C(=O)N[C@H](C(N)=O)[C@@H](C)O)C(C)C)C(=O)O [compound 43] (H-H[Aib]QGTFTSDK([γGlu-Palmitoyl])SKYLD[Aib]RAAQDFVQWLMDT-NH2; N-terminus assumed)
Activity at GLP-1 Receptor % Relative Activity ([1]; Table 3A): 575% | Activity at Glucagon Receptor % Relative Activity ([2]; Table 3A): 467%

Compound: CC[C@H](C)[C@H](NC(=O)[C@H](Cc1ccccc1)NC(=O)[C@H](CC(C)C)NC(=O)[C@H](CCCNC(=N)N)NC(=O)[C@@H](NC(=O)[C@H](C)NC(=O)[C@H](CCC(N)=O)NC(=O)[C@H](CCC(=O)O)NC(=O)[C@H](CC(=O)O)NC(=O)[C@H](CC(C)C)NC(=O)[C@H](Cc1ccc(O)cc1)NC(=O)[C@H](CCCCN)NC(=O)[C@H](CO)NC(=O)[C@H](Cc1ccc(O)cc1)NC(=O)[C@H](CC(=O)O)NC(=O)[C@H](CO)NC(=O)[C@@H](NC(=O)[C@H](Cc1ccccc1)NC(=O)[C@@H](NC(=O)CNC(=O)[C@H](CCC(N)=O)NC(=O)[C@@H](CO)NC(=O)[C@@H](N)Cc1c[nH]cn1)[C@@H](C)O)[C@@H](C)O)C(C)C)C(=O)N[C@@H](CS)C(=O)N[C@@H](Cc1c[nH]c2ccccc12)C(=O)N[C@@H](CC(C)C)C(=O)N[C@@H](CC(C)C)C(=O)N[C@@H](CC(=O)O)C(=O)N[C@H](C(N)=O)[C@@H](C)O [compound 87] (H-H[dS]QGTFTSDYSKYLDEQAVRLFICWLLDT-NH2; N-terminus assumed)
EC50 [1, 4]: 0.013 nM

More lines, now with the values ahead:

EC50 [1, 4]: 0.019 nM
Compound: CCCCCCCCCCCCCCCC(=O)N[C@@H](CCC(=O)NCCCC[C@H](NC(=O)[C@H](CC(=O)O)NC(=O)[C@H](CO)NC(=O)[C@@H](NC(=O)[C@H](Cc1ccccc1)NC(=O)[C@@H](NC(=O)CNC(=O)[C@H](CCC(N)=O)NC(=O)C(C)(C)NC(=O)[C@@H](N)Cc1c[nH]cn1)[C@@H](C)O)[C@@H](C)O)C(=O)N[C@@H](CO)C(=O)N[C@@H](CCCCN)C(=O)N[C@@H](Cc1ccc(O)cc1)C(=O)N[C@@H](CC(C)C)C(=O)N[C@@H](CC(=O)O)C(=O)N[C@@H](CCC(=O)O)C(=O)N[C@@H](CCC(=O)O)C(=O)N[C@@H](C)C(=O)N[C@H](C(=O)N[C@@H](CCCNC(=N)N)C(=O)N[C@@H](CC(C)C)C(=O)N[C@@H](Cc1ccccc1)C(=O)N[C@H](C(=O)N[C@@H](CCC(=O)O)C(=O)N[C@@H](Cc1c[nH]c2ccccc12)C(=O)N[C@@H](CC(C)C)C(=O)N[C@@H](CCSC)C(=O)N[C@@H](CC(N)=O)C(=O)N[C@H](C(N)=O)[C@@H](C)O)[C@@H](C)CC)C(C)C)C(=O)O [compound 38] (H-H[Aib]QGTFTSDK([γGlu-Palmitoyl])SKYLDEEAVRLFIEWLMNT-NH2; N-terminus assumed)

EC50 [1, 4]: 0.024 nM
Compound: CCCCCCCCCCCCCCCC(=O)NCCCC[C@H](NC(=O)[C@H](CC(=O)O)NC(=O)[C@H](CO)NC(=O)[C@@H](NC(=O)[C@H](Cc1ccccc1)NC(=O)[C@@H](NC(=O)CNC(=O)[C@H](CCC(N)=O)NC(=O)C(C)(C)NC(=O)[C@@H](N)Cc1c[nH]cn1)[C@@H](C)O)[C@@H](C)O)C(=O)N[C@@H](CO)C(=O)N[C@@H](CCCCN)C(=O)N[C@@H](Cc1ccc(O)cc1)C(=O)N[C@@H](CC(C)C)C(=O)N[C@@H](CC(=O)O)C(=O)N[C@@H](CCC(=O)O)C(=O)N[C@@H](CCC(=O)O)C(=O)N[C@@H](C)C(=O)N[C@H](C(=O)N[C@@H](CCCNC(=N)N)C(=O)N[C@@H](CC(C)C)C(=O)N[C@@H](Cc1ccccc1)C(=O)N[C@H](C(=O)N[C@@H](CCC(=O)O)C(=O)N[C@@H](Cc1c[nH]c2ccccc12)C(=O)N[C@@H](CC(C)C)C(=O)N[C@@H](CCSC)C(=O)N[C@@H](CC(N)=O)C(=O)N[C@H](C(N)=O)[C@@H](C)O)[C@@H](C)CC)C(C)C [compound 40] (H-H[Aib]QGTFTSDK(Palmitoyl)SKYLDEEAVRLFIEWLMNT-NH2; N-terminus assumed)

EC50 ([1]; Activity at GLP-1 Receptor EC50 [pM], Table 3A): 0.005 nM | Activity at GLP-1 Receptor % Relative Activity ([1]; Table 3A): 500% | Activity at Glucagon Receptor % Relative Activity ([2]; Table 3A): 863%
Compound: CCCCCCCCCCCCCCCC(=O)N[C@@H](CCC(=O)N[C@@H](CCC(=O)NCCCC[C@H](NC(=O)[C@H](CC(=O)O)NC(=O)[C@H](CO)NC(=O)[C@@H](NC(=O)[C@H](Cc1ccccc1)NC(=O)[C@@H](NC(=O)CNC(=O)[C@H](CCC(N)=O)NC(=O)C(C)(C)NC(=O)[C@@H](N)Cc1c[nH]cn1)[C@@H](C)O)[C@@H](C)O)C(=O)N[C@@H](CO)C(=O)N[C@@H](CCCCN)C(=O)N[C@@H](Cc1ccc(O)cc1)C(=O)N[C@@H](CC(C)C)C(=O)N[C@@H](CC(=O)O)C(=O)NC(C)(C)C(=O)N[C@@H](CCCNC(=N)N)C(=O)N[C@@H](C)C(=O)N[C@@H](C)C(=O)N[C@@H](CCC(N)=O)C(=O)N[C@@H](CC(=O)O)C(=O)N[C@@H](Cc1ccccc1)C(=O)N[C@H](C(=O)N[C@@H](CCC(N)=O)C(=O)N[C@@H](Cc1c[nH]c2ccccc12)C(=O)N[C@@H](CC(C)C)C(=O)N[C@@H](CCSC)C(=O)N[C@@H](CC(=O)O)C(=O)N[C@H](C(N)=O)[C@@H](C)O)C(C)C)C(=O)O)C(=O)O [compound 42] (H-H[Aib]QGTFTSDK([γGlu-γGlu-Palmitoyl])SKYLD[Aib]RAAQDFVQWLMDT-NH2; N-terminus assumed)

Activity at Glucagon Receptor % Relative Activity ([2]; Table 5): 1%
Compound: CCCCCCCCCCCCCCCC(=O)N[C@@H](CCC(=O)NCCCC[C@H](NC(=O)[C@H](CC(=O)O)NC(=O)[C@H](CO)NC(=O)[C@@H](NC(=O)[C@H](Cc1ccccc1)NC(=O)[C@@H](NC(=O)CNC(=O)[C@H](CCC(N)=O)NC(=O)[C@H](CO)NC(=O)[C@H](Cc1c[nH]cn1)NC(C)=O)[C@@H](C)O)[C@@H](C)O)C(=O)N[C@@H](CO)C(=O)N[C@@H](CCCCN)C(=O)N[C@@H](Cc1ccc(O)cc1)C(=O)N[C@@H](CC(C)C)C(=O)N[C@@H](CC(=O)O)C(=O)N[C@@H](CCC(=O)O)C(=O)N[C@@H](CCC(N)=O)C(=O)N[C@@H](C)C(=O)N[C@@H](C)C(=O)N[C@@H](CCCCN)C(=O)N[C@@H](CCC(=O)O)C(=O)N[C@@H](Cc1ccccc1)C(=O)N[C@H](C(=O)N[C@@H](CS)C(=O)N[C@@H](Cc1c[nH]c2ccccc12)C(=O)N[C@@H](CC(C)C)C(=O)N[C@@H](CC(C)C)C(=O)N[C@@H](CC(=O)O)C(=O)N[C@H](C(N)=O)[C@@H](C)O)[C@@H](C)CC)C(=O)O [compound 57] (Ac-HSQGTFTSDK([γGlu-Palmitoyl])SKYLDEQAAKEFICWLLDT-NH2)
